From PMC3231940, “Disposition, metabolism and mass balance of [^14C]apremilast following oral administration” (Xenobiotica; the Fate of Foreign Compounds in Biological …, 2011)

What was measured:
[1] = Metabolite profiling by HPLC radiochromatography in plasma, urine and faeces; type: in vivo, human; parameters: key to Plasma (% AUC relative to TRA); share of circulating radioactivity / % of dose excreted, urine: ND: not detected; D: detected by MS, but at concentrations too low to accurately quantify by radiochromatography
Description: Individual plasma samples collected from all subjects at 0.5, 1, 2.5, 8, 24, 36 and 48 h post-dose were analysed for metabolite profiling. A pooled sample (equal volume from 0.5,1,2.5,8 and 24 h) from subject 1 was also used for metabolite profiling. Three volumes of acetonitrile were added to each sample, followed by mixing and centrifu-gation. The supernatant was removed and the pellet was washed twice with acetonitrile. The combined superna-tants were evaporated to dryness under a stream of nitrogen. The residues were re-suspended in acetonitrile: 1% formic acid in water (1:1), assayed for extraction recovery and analysed for metabolite profiling.
For each subject, urine samples were pooled using an equal percentage by volume of the 0-4, 4-8, 8-12 and 12-24-h samples. The 24-48-h urine sample from each subject and a pool of the 0-168-h urine samples from subject 1 were also analysed for metabolite profiling. Samples were mixed and centrifuged prior to the supernatants being transferred to fresh tubes for metabolite profiling analysis.
Faecal homogenates for metabolite profiling were pooled using an equal percentage by weight to generate two pools (0-48 h and 48-96 h) for each subject. An additional pool (0-168 h) was prepared using the samples collected from subject 1. An aliquot (approximately 6 g) of each pool was extracted with three volumes of acetonitrile; samples were mixed and centrifuged. The supernatant was removed and the pellets were extracted twice with an additional 12 mL of acetonitrile each time. The combined supernatants were evaporated to dryness under a stream of nitrogen and the residue was re-suspended in a small volume (approximately 400 μL) of acetonitrile: 1% formic acid in water (1:1). Samples were assayed for extraction recovery prior to metabolite profiling.
HPLC analysis for metabolite profiling was performed using a Shimadzu LC-10ADVP (Shimadzu Corp., Columbia, MD) or a Waters 2695 Alliance Separation Module (Waters Corp., Milford, MA) with the autosampler set to an ambient temperature of approximately 22°C. ASPD-10A VPUV-Vis Detector or a Waters 996 Photodiode array detector set to 254 nm was used to detect UV absorbance. [^14C]Apremilast and metabolites were separated using a Phenomenex Luna C 18(2) column (150 × 4.6 mm, 3 μm; Phenomenex, Torrance, CA) equipped with a RP-18 guard column (15×3.2 mm, 7 μm) or using an ACE 3 C18 column (150 × 4.6 mm, 3 μm; Advanced Chromatography Technologies, Aberdeen, Scotland) equipped with an ACE 3 guard column (10×3mm, 3 μm). The mobile phases used were 0.4% formic acid in water; pH 3.2 with ammonium hydroxide (mobile phase A) and acetonitrile (mobile phase B). The column temperature was 30°C and the flow rate was 0.7mL/min. The linear gradient was delivered as follows: 0-5 min to 100% A; 5-20 min to 85% A; 20-30 min hold at 85% A; 30-50 min to 65% A; 50-60 min to 60% A; 60-70 min to 50% A; 70-75 min to 0% A; hold at 0% A until 80 min; return to initial conditions over 2 min.
Radioactivity profiles for excreta were determined by radiochromatography using liquid chromatography-accurate radioisotope counting stop-flow system (LC-ARC; AIM Research Company, Wilmington, DE). Radioactivity was detected using a β-Ram Radioflow detector (IN/US Systems, Brandon, FL) equipped with a 1300-μL liquid cell. Liquid scintillation cocktail and column eluate were mixed at a ratio of 2.5:1. Radioactive peaks were quantified using LC-ARC data handling software. Plasma radioactivity profiles were determined by collecting the column eluate into 96-well Deepwell LumaPlates at a rate of 0.25 min/fraction. The plates were dried and the radioactivity in each well determined using a PerkinElmer TopCount NXT Microplate Scintillation Counter. HPLC radiochromatograms were reconstructed using LC-ARC data handling software.
Pharmacokinetic data were generated by non-compartmental analysis of plasma or whole blood versus time profiles using WinNonlin (version 4.1, Enterprise Edition). […]

[2] = test system: PDE4 enzyme isolated from U937 human monocytic cells; assay: PDE4 inhibition, cAMP hydrolysis assay; type: biochemical
Description: (§1) PDE4 enzyme was isolated from U937 human monocytic cells and used for testing inhibition in a cAMP hydrolysis assay as previously described ([Schafer et al. 2010]). For the TNF-α production assay, human peripheral blood mono-nuclear cells (PBMC) were isolated from buffy coat of normal donor blood units (Blood Center of New Jersey, East Orange, NJ) by density centrifugation over Ficoll Hypaque (Pharmacia, Piscataway, NJ). Cells were cultured in RPMI 1640 (Life Technologies, Grand Island, NY) supplemented with 5% AB^+ human serum (Gemini Bio-products, Woodland, CA), 2-mM L-glutamine, 100-U/mL penicillin and 100-μg/mL streptomycin (Life Technologies). PBMC (2×10^5 cells) were plated in 96-well flat-bottom Costar tissue culture plates (Corning, NY) in duplicate. Cells were stimulated with lipopolysaccharides (LPS) (from Salmonella abortus equi; Sigma cat.no. L-1887, St.Louis, MO) at a final concentration of 1 ng/mL in the absence or presence of compounds. The compounds were dissolved in DMSO (Sigma) and subsequent dilutions were done in culture medium immediately before use. The compounds were added to cells 1 h before LPS stimulation. The cells were incubated for 16-18 h at 37°C in 5% CO2, and super-natants were then collected, diluted with culture medium and assayed for TNF-α levels by enzyme-linked immunosorbent assay (ThermoFisher, Rockford, IL). Fifty percent inhibitory concentrations (IC50) for the PDE4 enzymatic and TNF-α assay were calculated by non-linear regression analysis using Prism 5.1 (GraphPad Software). Regression curves were sigmoidal dose response curves with maximum and minimum constrained to 100% and 0%, respectively.

[3] = test system: TNF-α production by human peripheral blood mononuclear cells; assay: TNF-α production assay in LPS-stimulated PBMC; type: cell-based; details: LPS 1 ng/mL, 16-18 h, ELISA
Description: as §1

Compound: CCOc1cc([C@@H](CS(C)(=O)=O)N2C(=O)c3cccc(NC(=O)CO)c3C2=O)ccc1OC [Metabolite M17]
- Plasma (% AUC relative to TRA); share of circulating radioactivity ([1]; AUC0-t (unchanged drug or metabolite)/AUC0-48 (TRA) * 100%): D
- % of dose excreted, faeces ([1]; faeces collected up to 96-h post-dose): 0.9 % of dose
- Concentration in circulation relative to apremilast ([1]; plasma): < 2%
- % of dose excreted, urine ([1]; urine collected up to 48-h post-dose): 1.2 % of dose
- IC50 ([2]; PDE4 from U937 cells, cAMP hydrolysis): 94 nM
- PDE4 and TNF-α inhibition activity compared with apremilast ([2]; both assays, in words): IC50 values similar to those of apremilast
- IC50 [3]: 21 nM
